Legend:
MAO B, human enzyme = biological target: MAO B, human enzyme; design: method as in PMID 22282722; settings: competitive inhibition; cited from earlier work
[1] = ABTS radical scavenging assay; assay type: physicochemical; settings: compound at 0.2·[ABTS+]
Description: (§1) Starting from these evidences, we tested DAN in two in vitro models of radical scavenging activity, i.e., the 1,1-diphenyl-2-picryl-hydrazyl (DPPH) and 2,2′-azinobis-(3-ethylbenzothiazoline-6-sulfonic acid) (ABTS) free radical production. Both generate stable nitrogen radicals showing high absorption in visible spectrum, thus allowing easy and straightforward spectrophotometric measures. […] It can be assumed that the antioxidant activity of DAN is independent from its radical scavenging properties.
(§2) Already published protocols for DPPH and […] radical scavenging were used. The scavenging of the radical DPPH^·, or the monocation radical ABTS^·+, were determined by measuring the loss of absorbance at 515 or 755 nm, respectively. Samples were prepared in clear polystyrene flat-bottomed 96-well microplates. […] A preliminary absorbance reading at 755 nm allowed to determine the actual ABTS^·+ concentration (normally 60–70 μM; extinction coefficient ε = 12,000) and set the final concentration of inhibitors to 0.2[ABTS^·+]. 215 μL of ABTS^·+ solution were mixed with 35 μL of stock solution of inhibitors and the decrease in absorbance was monitored. Antioxidant activity was determined from Equation (2) as the percentage of radical production of inhibitor containing samples, compared with control: % radical production = 100 × ABSsample/ABScontrol(2)

[2] = DPPH radical scavenging assay; assay type: physicochemical; settings: compound 50 μM, DPPH 100 μM
Description: as §1, §2

SMILES	Ki for human MAO B (competitive) (MAO B, human enzyme)	ABTS radical scavenging activity [1]	DPPH radical scavenging activity [2]
CCc1ccc(CCOc2ccc(CC3SC(=O)NC3=O)cc2)nc1 (stereo not shown) [pioglitazone]	submicromolar		
O=c1c(O)c(-c2ccc(O)c(O)c2)oc2cc(O)cc(O)c12 [quercetin]		strong radical scavenger	strong radical scavenger
CN(CCOc1ccc(CC2SC(=O)NC2=O)cc1)c1ccccn1 (stereo not shown) [rosiglitazone]	low-		

— publication PMC6930524, “A Prospective Repurposing of Dantrolene as a Multitarget Agent for Alzheimer’s Disease” (Molecules, 2019)
